pKi: −log10 of the molar value. Like-named read-outs stand apart in the source and are kept apart here.
Molecular target: T1, ATR kinase (full-length ATR) (Homo sapiens, UniProt Q13535)
T1 construct: Assays were carried out at 25° C. in the presence of 5 nM full-length ATR
Assay: ATR Inhibition Assay (radioactive-phosphate incorporation)
Format: biochemical
Conditions: Ki(app), 5 nM full-length ATR, 10 μM ATP, 800 μM target peptide, 25° C., read-out: ATR Inhibition Ki
Experimental: Compounds were screened for their ability to inhibit ATR kinase using a radioactive-phosphate incorporation assay. Assays were carried out in a mixture of 50 mM Tris/HCl (pH 7.5), 10 mM MgCl2 and 1 mM DTT. Final substrate concentrations were 10 μM [y-33P]ATP (3mCi 33P ATP/mmol ATP, Perkin Elmer) and 800 μM target peptide ([…]).
Assays were carried out at 25° C. in the presence of 5 nM full-length ATR. An assay stock buffer solution was prepared containing all of the reagents listed above, with the exception of ATP and the test compound of interest. […] The plate was pre-incubated for 10 minutes at 25° C. and the reaction initiated by addition of 15 μL [y-33P]ATP (final concentration 10 μM).
The reaction was stopped after […] by the addition of 30 μL 0.1M phosphoric acid containing 2 mM ATP. A multiscreen phosphocellulose filter 96-well plate (Millipore, Cat no. MAPHN0B50) was pretreated with 100 μL 0.2M phosphoric acid prior to the addition of 45 μL of the stopped assay mixture. The plate was washed with 5×200 μL 0.2M phosphoric acid.
After removing mean background values for all of the data points, Ki(app) data were calculated from non-linear regression analysis of the initial rate data using the Prism software package (GraphPad Prism version 3.0cx for Macintosh, GraphPad Software, San Diego Calif., USA).

T1 sequence (Q13535 whole entry): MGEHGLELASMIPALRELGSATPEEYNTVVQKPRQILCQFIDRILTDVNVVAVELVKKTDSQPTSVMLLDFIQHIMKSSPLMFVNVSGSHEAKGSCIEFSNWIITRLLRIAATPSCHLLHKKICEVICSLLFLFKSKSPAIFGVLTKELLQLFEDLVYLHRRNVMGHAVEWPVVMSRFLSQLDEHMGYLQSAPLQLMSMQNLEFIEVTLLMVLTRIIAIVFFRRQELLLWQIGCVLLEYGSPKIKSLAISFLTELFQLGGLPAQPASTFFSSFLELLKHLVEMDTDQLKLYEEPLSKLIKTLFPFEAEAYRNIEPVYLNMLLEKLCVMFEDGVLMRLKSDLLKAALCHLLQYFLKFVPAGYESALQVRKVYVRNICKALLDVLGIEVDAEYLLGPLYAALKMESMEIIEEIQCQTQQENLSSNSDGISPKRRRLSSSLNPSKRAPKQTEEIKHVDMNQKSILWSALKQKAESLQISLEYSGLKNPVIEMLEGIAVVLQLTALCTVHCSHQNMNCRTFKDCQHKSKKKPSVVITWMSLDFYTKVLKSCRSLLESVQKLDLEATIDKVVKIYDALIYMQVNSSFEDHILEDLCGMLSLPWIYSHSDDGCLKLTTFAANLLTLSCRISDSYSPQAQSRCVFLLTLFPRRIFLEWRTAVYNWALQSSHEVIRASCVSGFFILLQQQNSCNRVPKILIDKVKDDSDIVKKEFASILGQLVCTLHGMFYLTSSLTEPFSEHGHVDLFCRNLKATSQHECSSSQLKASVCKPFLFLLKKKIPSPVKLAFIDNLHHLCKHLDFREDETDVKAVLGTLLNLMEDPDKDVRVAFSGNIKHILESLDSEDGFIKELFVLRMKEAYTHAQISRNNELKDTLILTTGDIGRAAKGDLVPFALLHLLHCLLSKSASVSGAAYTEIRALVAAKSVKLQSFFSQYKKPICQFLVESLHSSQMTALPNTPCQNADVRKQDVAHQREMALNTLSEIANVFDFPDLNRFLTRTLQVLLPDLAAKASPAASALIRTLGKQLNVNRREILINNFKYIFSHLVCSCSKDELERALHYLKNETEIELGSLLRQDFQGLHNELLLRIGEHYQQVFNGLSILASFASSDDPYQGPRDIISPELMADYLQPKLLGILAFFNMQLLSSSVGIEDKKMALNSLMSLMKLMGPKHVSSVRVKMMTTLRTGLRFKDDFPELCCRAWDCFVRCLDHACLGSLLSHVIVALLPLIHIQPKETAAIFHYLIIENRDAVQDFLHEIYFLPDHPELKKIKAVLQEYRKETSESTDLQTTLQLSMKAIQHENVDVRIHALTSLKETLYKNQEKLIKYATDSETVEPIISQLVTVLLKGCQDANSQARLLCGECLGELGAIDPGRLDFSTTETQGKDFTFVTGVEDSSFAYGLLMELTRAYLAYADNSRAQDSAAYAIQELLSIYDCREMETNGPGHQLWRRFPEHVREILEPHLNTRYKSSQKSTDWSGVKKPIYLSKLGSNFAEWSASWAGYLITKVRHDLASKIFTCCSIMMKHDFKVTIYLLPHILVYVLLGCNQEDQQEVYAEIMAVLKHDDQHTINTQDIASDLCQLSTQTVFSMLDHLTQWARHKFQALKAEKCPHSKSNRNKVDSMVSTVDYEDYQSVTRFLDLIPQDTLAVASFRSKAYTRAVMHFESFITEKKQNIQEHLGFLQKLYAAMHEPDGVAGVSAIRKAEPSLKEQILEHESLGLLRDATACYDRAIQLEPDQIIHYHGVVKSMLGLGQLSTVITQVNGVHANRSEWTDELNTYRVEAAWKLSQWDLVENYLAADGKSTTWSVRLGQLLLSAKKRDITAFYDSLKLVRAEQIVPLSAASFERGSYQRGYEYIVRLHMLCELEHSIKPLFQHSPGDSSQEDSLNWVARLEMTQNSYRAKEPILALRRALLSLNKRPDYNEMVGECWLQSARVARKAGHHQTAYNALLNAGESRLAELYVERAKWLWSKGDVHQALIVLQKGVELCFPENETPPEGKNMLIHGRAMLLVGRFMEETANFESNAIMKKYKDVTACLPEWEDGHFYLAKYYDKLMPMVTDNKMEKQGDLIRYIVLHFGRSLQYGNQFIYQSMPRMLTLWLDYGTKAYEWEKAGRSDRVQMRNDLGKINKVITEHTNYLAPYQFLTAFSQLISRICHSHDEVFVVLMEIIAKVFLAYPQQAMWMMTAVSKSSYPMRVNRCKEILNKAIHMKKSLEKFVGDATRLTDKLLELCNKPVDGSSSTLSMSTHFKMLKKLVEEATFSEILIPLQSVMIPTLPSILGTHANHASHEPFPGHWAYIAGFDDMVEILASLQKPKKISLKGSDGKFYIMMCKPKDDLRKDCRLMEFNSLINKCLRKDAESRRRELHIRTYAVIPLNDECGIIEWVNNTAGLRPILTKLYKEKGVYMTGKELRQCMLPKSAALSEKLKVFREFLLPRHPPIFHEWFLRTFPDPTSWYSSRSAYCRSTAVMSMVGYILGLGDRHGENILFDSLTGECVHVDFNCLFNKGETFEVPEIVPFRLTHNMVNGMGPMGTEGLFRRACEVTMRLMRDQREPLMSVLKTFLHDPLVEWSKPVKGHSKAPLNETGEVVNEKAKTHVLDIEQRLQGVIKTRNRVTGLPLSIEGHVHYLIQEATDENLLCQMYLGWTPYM

Compound	pKi (class symbols)	pKi (given as numeric lower bound without unit)
CC(c1cccc(Cl)c1)N(C)C(=O)c1c[nH]c2ncc(-c3ccc(S(=O)(=O)C(C)C)cc3)nc12 (stereo not shown) [Compound I-126, N-[1-(3-chlorophenyl)ethyl]-2-(4-isopropylsulfonylphenyl)-N-methyl-5H-pyrrolo[2,3-b]pyrazine-7-carboxamide]	> 7.00	–
CC(C)S(=O)(=O)c1ccc(-c2cnc3[nH]cc(C(=O)NCC4CCC(CN)CC4)c3n2)cc1 (stereo not shown) [Compound I-93, N-[[4-(aminomethyl)cyclohexyl]methyl]-2-(4-isopropylsulfonylphenyl)-5H-pyrrolo[2,3-b]pyrazine-7-carboxamide]	6.30 to 7.00	–
CCN(C(=O)c1c[nH]c2ncc(-c3ccc(S(=O)(=O)C(C)C)cc3)nc12)c1ccccc1 [Compound I-9, N-ethyl-2-(4-isopropylsulfonylphenyl)-N-phenyl-5H-pyrrolo[2,3-b]pyrazine-7-carboxamide]	5.30 to 6.30	–
CC(C)S(=O)(=O)c1ccc(-c2cnc3[nH]cc(C(=O)NCc4ccc(N)cc4)c3n2)cc1 [Compound I-57, N-[(4-aminophenyl)methyl]-2-(4-isopropylsulfonylphenyl)-5H-pyrrolo[2,3-b]pyrazine-7-carboxamide]	> 7.00	–
CC(C)S(=O)(=O)c1ccc(-c2cnc3[nH]cc(C(=O)Nc4ccccc4O)c3n2)cc1 [Compound I-25, N-(2-hydroxyphenyl)-2-(4-isopropylsulfonylphenyl)-5H-pyrrolo[2,3-b]pyrazine-7-carboxamide]	> 7.00	–
CC(C)S(=O)(=O)c1ccc(-c2cnc3[nH]cc(C(=O)NCC4(O)CCCCC4)c3n2)cc1 [Compound I-94, N-[(1-hydroxycyclohexyl)methyl]-2-(4-isopropylsulfonylphenyl)-5H-pyrrolo[2,3-b]pyrazine-7-carboxamide]	> 7.00	–
CC(C)S(=O)(=O)c1ccc(-c2cnc3[nH]cc(C(=O)NC4CCS(=O)(=O)C4)c3n2)cc1 (stereo not shown) [Compound I-103, N-(1,1-dioxothiolan-3-yl)-2-(4-isopropylsulfonylphenyl)-5H-pyrrolo[2,3-b]pyrazine-7-carboxamide]	5.30 to 6.30	–
CC(C)S(=O)(=O)c1ccc(-c2cnc3[nH]cc(C(=O)NCc4ccc(N5CCOCC5)cc4)c3n2)cc1 [Compound I-38, 2-(4-isopropylsulfonylphenyl)-N-[(4-morpholinophenyl)methyl]-5H-pyrrolo[2,3-b]pyrazine-7-carboxamide]	5.30 to 6.30	–
Cc1ccc(F)cc1CNC(=O)c1c[nH]c2ncc(-c3ccc(S(=O)(=O)C(C)C)cc3)nc12 [Compound I-87, N-[(5-fluoro-2-methyl-phenyl)methyl]-2-(4-isopropylsulfonylphenyl)-5H-pyrrolo[2,3-b]pyrazine-7-carboxamide]	> 7.00	–
CC(C)S(=O)(=O)c1ccc(-c2cnc3[nH]cc(C(=O)N[C@H](C(N)=O)c4ccccc4)c3n2)cc1 [Compound I-124, N-[(1S)-2-amino-2-oxo-1-phenyl-ethyl]-2-(4-isopropylsulfonylphenyl)-5H-pyrrolo[2,3-b]pyrazine-7-carboxamide]	6.30 to 7.00	–
CC(C)S(=O)(=O)c1ccc(-c2cnc3[nH]cc(C(=O)Nc4ccc(F)cc4)c3n2)cc1 [Compound I-72, N-(4-fluorophenyl)-2-(4-isopropylsulfonylphenyl)-5H-pyrrolo[2,3-b]pyrazine-7-carboxamide]	6.30 to 7.00	–
CC(C)S(=O)(=O)c1ccc(-c2cnc3[nH]cc(C(=O)Nc4ccccc4CCO)c3n2)cc1 [Compound I-50, N-[2-(2-hydroxyethyl)phenyl]-2-(4-isopropylsulfonylphenyl)-5H-pyrrolo[2,3-b]pyrazine-7-carboxamide]	6.30 to 7.00	–
CC(C)S(=O)(=O)c1ccc(-c2cnc3[nH]cc(C(=O)N(Cc4ccccc4)c4ccccc4)c3n2)cc1 [Compound I-8, N-benzyl-2-(4-isopropylsulfonylphenyl)-N-phenyl-5H-pyrrolo[2,3-b]pyrazine-7-carboxamide]	5.30 to 6.30	–
CC(C)S(=O)(=O)c1ccc(-c2cnc3[nH]cc(C(=O)NCc4cccc(F)c4F)c3n2)cc1 [Compound I-88, N-[(2,3-difluorophenyl)methyl]-2-(4-isopropylsulfonylphenyl)-5H-pyrrolo[2,3-b]pyrazine-7-carboxamide]	> 7.00	–
CC(C)S(=O)(=O)c1ccc(-c2cnc3[nH]cc(C(=O)NCCc4ccccn4)c3n2)cc1 [Compound I-61, 2-(4-isopropylsulfonylphenyl)-N-[2-(2-pyridyl)ethyl]-5H-pyrrolo[2,3-b]pyrazine-7-carboxamide]	> 7.00	–
Cc1c(F)cccc1CNC(=O)c1c[nH]c2ncc(-c3ccc(S(=O)(=O)C(C)C)cc3)nc12 [Compound I-85, N-[(3-fluoro-2-methyl-phenyl)methyl]-2-(4-isopropylsulfonylphenyl)-5H-pyrrolo[2,3-b]pyrazine-7-carboxamide]	> 7.00	–
Cc1ccc(NC(=O)c2c[nH]c3ncc(-c4ccc(S(=O)(=O)C(C)C)cc4)nc23)cc1F [Compound I-64, N-(3-fluoro-4-methyl-phenyl)-2-(4-isopropylsulfonylphenyl)-5H-pyrrolo[2,3-b]pyrazine-7-carboxamide]	> 7.00	–
CC(C)S(=O)(=O)c1ccc(-c2cnc3[nH]cc(C(=O)N(CC(N)=O)C4CCCC4)c3n2)cc1 [Compound I-131, N-(2-amino-2-oxo-ethyl)-N-cyclopentyl-2-(4-isopropylsulfonylphenyl)-5H-pyrrolo[2,3-b]pyrazine-7-carboxamide]	–	< 7.40
Cc1ccccc1CNC(=O)c1c[nH]c2ncc(-c3ccc(S(=O)(=O)C(C)C)cc3)nc12 [Compound I-15, 2-(4-isopropylsulfonylphenyl)-N-(o-tolylmethyl)-5H-pyrrolo[2,3-b]pyrazine-7-carboxamide]	> 7.00	–
CC(C)S(=O)(=O)c1ccc(-c2cnc3[nH]cc(C(=O)NC(c4ccccc4)c4ccccc4)c3n2)cc1 [Compound I-108, N-benzhydryl-2-(4-isopropylsulfonylphenyl)-5H-pyrrolo[2,3-b]pyrazine-7-carboxamide]	5.30 to 6.30	–
Cc1ccc(NC(=O)c2c[nH]c3ncc(-c4ccc(S(=O)(=O)C(C)C)cc4)nc23)cc1 [Compound I-70, 2-(4-isopropylsulfonylphenyl)-N-(p-tolyl)-5H-pyrrolo[2,3-b]pyrazine-7-carboxamide]	6.30 to 7.00	–
CC(C)S(=O)(=O)c1ccc(-c2cnc3[nH]cc(C(=O)Nc4ccccc4N)c3n2)cc1 [Compound I-19, N-(2-aminophenyl)-2-(4-isopropylsulfonylphenyl)-5H-pyrrolo[2,3-b]pyrazine-7-carboxamide]	6.30 to 7.00	–
CC(C)S(=O)(=O)c1ccc(-c2cnc3[nH]cc(C(=O)Nc4cccc(CO)c4)c3n2)cc1 [Compound I-26, N-[3-(hydroxymethyl)phenyl]-2-(4-isopropylsulfonylphenyl)-5H-pyrrolo[2,3-b]pyrazine-7-carboxamide]	> 7.00	–
Cc1ccc(Cl)cc1CNC(=O)c1c[nH]c2ncc(-c3ccc(S(=O)(=O)C(C)C)cc3)nc12 [Compound I-67, N-[(5-chloro-2-methyl-phenyl)methyl]-2-(4-isopropylsulfonylphenyl)-5H-pyrrolo[2,3-b]pyrazine-7-carboxamide]	> 7.00	–
Cc1cccnc1CNC(=O)c1c[nH]c2ncc(-c3ccc(S(=O)(=O)C(C)C)cc3)nc12 [Compound I-83, 2-(4-isopropylsulfonylphenyl)-N-[(3-methyl-2-pyridyl)methyl]-5H-pyrrolo[2,3-b]pyrazine-7-carboxamide]	6.30 to 7.00	–

Reference: US9096602B2, “Substituted pyrrolo[2,3-B]pyrazines as ATR kinase inhibitors” (Vertex Pharmaceuticals Incorporated, priority 2011, dated 2015)
